Consider 29 compounds from patent US5498609A, “Benzoazepinyl compounds as oxytocin and vasopressin antagonists” (Otsuka Pharmaceutical Company, Limited, priority 1992, dated 1996).

As usually defined, the IC50 is the concentration that gives 50% inhibition.

For assay [1], the target named is T1, Oxytocin receptor (Rattus norvegicus, UniProt P70536).
T1 construct: from tissue; host or cells: rat uterine muscle membrane (diethylstilbestrol-treated)
T1 sequence (P70536 1-388): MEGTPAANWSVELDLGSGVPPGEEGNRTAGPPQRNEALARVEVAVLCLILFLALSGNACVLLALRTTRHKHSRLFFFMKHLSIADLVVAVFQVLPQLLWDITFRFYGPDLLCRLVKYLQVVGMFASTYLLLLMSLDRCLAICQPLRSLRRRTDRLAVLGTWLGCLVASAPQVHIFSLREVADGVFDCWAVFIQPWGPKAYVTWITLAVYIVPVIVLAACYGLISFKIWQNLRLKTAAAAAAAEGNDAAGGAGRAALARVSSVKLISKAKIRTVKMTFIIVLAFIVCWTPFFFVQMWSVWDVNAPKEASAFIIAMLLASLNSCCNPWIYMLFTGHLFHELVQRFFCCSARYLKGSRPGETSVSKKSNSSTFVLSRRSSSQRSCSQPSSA
Briefly: Oxytocin receptor binding assay ([3H]-oxytocin, rat uterine muscle membrane). The settings on record: for IC50: 25° C., one hour, pH 8.0; for inhibition at 10 µM: 10^-5 M test compound, read-out: Inhibitory Rate (%) at 10^-5 M (oxytocin receptor binding assay). Here is the method:
Experiment 3: Oxytocin receptor binding assay
According to the method of W. Y. Chan et al. [Endocrinology, 126, 2095-2101 (1990)], uterine muscle is taken out from a rat which has previously been injected subcutaneously with diethylstilbestrol the day before, and homogenized, which is used as a membrane preparation. The membrane preparation (0.2 mg), [^3 H]-oxytocin (100000 dpm, 10^-9 M), a test compound (10^-9 -10^-5 M) are incubated at 25° C. for one hour in 100 mM Tris-HCl buffer (pH 8.0, 250 μl) containing a 5 mM MgCl2, 1 mM MEDTA and 0.1% BSA. The mixture is filtered through the glass filter (GF/B) so as to separate the membrane preparation binding with [^3 H]-oxytocin, and then, washed twice with the buffer (5 ml). This glass filter is put into a vial and mixed with Aquasole (liquid scintillation cocktail). The amount of [^3 H]-oxytocin binding with the membrane is measured by liquid scintillation counter. The rate of the inhibitory effect of the test compound is estimated according to the following equation.
Inhibitory Rate (%)=100-[(C1 -B)/(C0 -B)]×100
C1 : The amount of [^3 H]-oxytocin binding with the membrane in the presence of a test compound (known amount)
C0 : The amount of [^3 H]-oxytocin binding with the membrane in the absence of a test compound
B: The amount of [^3 H]-oxytocin binding with the membrane in the presence of the excess amount of oxytocin (5×10^-6 M).
The results are expressed as IC50 value, which is the concentration of the test compound required to achieve the inhibitory rate in the rate of 50%.

Assay [2] has as its target T2, V2 receptor (Rattus norvegicus, UniProt Q00788).
T2 construct: Using rat kidney plasma membrane preparations; from tissue; host or cells: rat kidney plasma membrane
Kind of assay: biochemical. The settings on record: rat kidney plasma membrane, [3H]-Arg-vasopressin, 4° C., pH 8.0, read-out: IC50 in V2 receptor binding assay. On the procedure: Experiment 2: V2 receptor binding assay
Using rat kidney plasma membrane preparations prepared according to O. Hechter's method [cf: J. Bio. Chem., 253, 3211 (1978)], the plasma membrane (100000 dpm, 4×10^-10 M) of [^3 H]-Arg-vasopressin and a test compound (0.6 mg, 10^-10 to 10^-5 M) are incubated at 4° C. for 3 hours in 100 mM Tris-HCl buffer (pH: 8.0) (250 μl) containing 5 mM MgCl2, 1 mM EDTA and 0.1% BSA. After incubation, the mixture is filtered using the glass filter (GF/F) so as to separate the membrane preparation binding with vasopressin and then washed twice with the buffer (each 5 ml). This glass filter is taken out and mixed with liquid scintillation cocktail. The amount of [^3 H]-vasopressin binding with the membrane is measured by liquid scintillation counter and the rate of the inhibitory effect of the test compound is estimated according to the following equation. [formula] C1 : The amount of [^3 H]-vasopressin binding with the membrane in the presence of the test compound (known amount)
(§1) C0 : The amount of [^3 H]-vasopressin binding with the membrane in the absence of the test compound
(§2) B1 : The amount of [^3 H]-vasopressin binding with the membrane in the presence of the excess amount of vasopressin (10^-6 M)
(§3) The results are expressed as IC50 value, which is the concentration of the test compound required to achieve the inhibitory effect in the rate of 50%.

In assay [3] the target is V1 receptor (Rattus norvegicus, UniProt P30560). Kind of assay: biochemical. The following applies: rat liver plasma membrane, [3H]-Arg-vasopressin, 37° C., 10 minutes, pH 8.0; read-out: IC50 in V1 receptor binding assay. On the procedure: Experiment 1: V1 receptor binding assay
Using rat liver plasma membrane preparations prepared according to Ichihara's method [cf: Akira Ichihara, J. Bio. Chem., 258, 9283 (1983)], the plasma membrane (50000 dpm, 2×10^-10 M) of [^3 H]-Arg-vasopressin and a test compound (60 μg, 10^-8 to 10^-4 M) are incubated at 37° C. for 10 minutes in 100 mM Tris-HCl buffer (pH: 8.0) (250 μl) containing 5 mM MgCl2, 1 mM EDTA and 0.1% BSA. After incubation, the mixture is filtered three times using the glass filter (GF/F) so as to separate the membrane preparation binding with vasopressin and then washed with the buffer (5 ml). This glass filter is taken out and mixed with liquid scintillation cocktail. The amount of [^3 H]-vasopressin binding with the membrane is measured by liquid scintillation counter and the rate of the inhibitory effect of the test compound is estimated according to the following equation. [formula] C1 : The amount of [^3 H]-vasopressin binding with the membrane in the presence of the test compound (known amount)
as §1, §2, §3

V1 receptor, sequence (P30560 whole entry): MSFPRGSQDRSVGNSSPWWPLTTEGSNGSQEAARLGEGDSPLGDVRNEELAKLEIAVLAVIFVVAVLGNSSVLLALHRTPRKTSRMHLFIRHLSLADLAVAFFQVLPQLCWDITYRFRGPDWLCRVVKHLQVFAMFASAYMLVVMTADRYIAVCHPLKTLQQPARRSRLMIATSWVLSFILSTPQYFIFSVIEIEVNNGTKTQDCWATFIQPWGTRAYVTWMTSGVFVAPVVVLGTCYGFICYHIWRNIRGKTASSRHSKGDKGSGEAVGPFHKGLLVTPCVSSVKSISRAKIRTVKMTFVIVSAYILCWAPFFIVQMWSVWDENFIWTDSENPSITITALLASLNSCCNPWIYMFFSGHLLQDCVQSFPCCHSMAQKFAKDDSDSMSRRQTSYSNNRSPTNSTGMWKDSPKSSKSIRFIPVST
T2 sequence (Q00788 whole entry): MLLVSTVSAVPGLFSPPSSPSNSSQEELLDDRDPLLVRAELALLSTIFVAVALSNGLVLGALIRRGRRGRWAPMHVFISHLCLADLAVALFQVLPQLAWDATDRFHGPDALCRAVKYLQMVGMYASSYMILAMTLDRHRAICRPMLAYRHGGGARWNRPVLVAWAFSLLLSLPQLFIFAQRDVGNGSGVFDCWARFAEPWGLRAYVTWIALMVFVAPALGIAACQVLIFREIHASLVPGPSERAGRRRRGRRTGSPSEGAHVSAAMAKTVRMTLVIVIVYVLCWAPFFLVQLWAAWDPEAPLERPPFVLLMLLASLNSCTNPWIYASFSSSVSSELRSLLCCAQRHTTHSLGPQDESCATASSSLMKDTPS

Take `Cc1ccccc1C(=O)Nc1ccc(C(=O)N2CCCC(OCCN(C)C)c3cc(Cl)ccc32)cn1` (stereo not drawn) [Compound of Ex. 37, 7-chloro-5-(2-dimethylaminoethoxy)-1-[6-(2-methylbenzoylamino)nicotinoyl]-2,3,4,5-tetrahydro-1H-benzazepine]: the IC50 was determined as 1140 nM in assay [1], 5 nM in assay [2] and 11 nM in assay [3].
For `Cc1ccccc1C(=O)Nc1ccc(C(=O)N2CCCC(CC(N)=O)c3cc(Cl)ccc32)cn1` (stereo not drawn) [Compound of Ex. 40] the same measures were 740 nM, 9 nM and 44 nM.
For `Cc1ccccc1C(=O)Nc1ccc(C(=O)N2CCCCc3cc(Cl)ccc32)cn1` [Compound of Ex. 43] the same measures were 290 nM, 10 nM and 13 nM.
As for `O=C(Nc1ccc(C(=O)N2CCCCc3cc(Cl)ccc32)cn1)c1ccccc1Cl` [Compound of Ex. 44], the IC50 in assay [1] worked out at 307 nM; in assay [2], 11 nM; in assay [3], 8 nM.
For `O=C(Nc1ccc(C(=O)N2CCCCc3cc(Cl)ccc32)cn1)c1ccccc1Br` [Compound of Ex. 45] the same measures were 260 nM, 7 nM and 5 nM.
Consider `O=C(Nc1ccc(C(=O)N2CCCCc3cc(Cl)ccc32)cn1)C1CCCCC1` [Compound of Ex. 46], for which the IC50 in assay [1] was found to be 360 nM.
With `Cc1ccccc1C(=O)Nc1ccc(C(=O)N2CCCN(C)c3cc(Cl)ccc32)cn1` [Compound of Ex. 52], the 50% inhibitory concentration (IC50) in assay [1] was determined as 1600 nM; in assay [2], 22 nM; in assay [3], 51 nM.
In assay [1], `COC1CCCN(C(=O)c2ccc(NC(=O)c3ccccc3Cl)nc2)c2ccc(Cl)cc21` (stereo not drawn) [Compound of Ex. 72] yielded an IC50 of 440 nM.
For the compound `C=CCOC1CCCN(C(=O)c2ccc(NC(=O)c3ccccc3Br)nc2)c2ccc(Cl)cc21` (stereo not drawn) [Compound of Ex. 76], the IC50 in assay [1] is 1500 nM; in assay [2], 8 nM; in assay [3], 27 nM.
In turn, `Cc1ccccc1C(=O)Nc1ccc(C(=O)N2CCCC(NC3CC3)c3cc(Cl)ccc32)cn1` (stereo not drawn) [Compound of Ex. 77] yielded an IC50 in assay [1] of 1800 nM.
On to `CNC1CCCN(C(=O)c2ccc(NC(=O)c3ccccc3Cl)nc2)c2ccc(Cl)cc21` (stereo not drawn) [Compound of Ex. 80], for which the IC50 in assay [1] was determined as 1000 nM.
On the same count and under the same terms, for `CCOC(=O)COc1ccccc1C(=O)Nc1ccc(C(=O)N2CCCCc3cc(Cl)ccc32)cn1` [Compound of Ex. 82] the value was 9700 nM.
On to `O=C(Nc1ccc(C(=O)N2CCCCc3cc(Cl)ccc32)cn1)c1ccccc1OCCO` [Compound of Ex. 83], for which the IC50 in assay [1] was determined as 6600 nM; in assay [2], 430 nM; in assay [3], 71 nM.
On to `O=C(O)CCCOc1ccccc1C(=O)Nc1ccc(C(=O)N2CCCCc3cc(Cl)ccc32)cn1` [Compound of Ex. 86], for which the inhibition at 10 µM in assay [1] amounted to 17%.
As for `CN1CCN(C(=O)COc2ccccc2C(=O)Nc2ccc(C(=O)N3CCCCc4cc(Cl)ccc43)cn2)CC1` [Compound of Ex. 88, 7-chloro-1-{6-[2-(4-methyl-1-piperazinyl)-carbonylmethoxybenzoylamino]nicotinoyl}-2,3,4,5-tetrahydro-1H-benzazepine], the figures for the IC50 in assay [1], in assay [2] and in assay [3] were 4500 nM, 200 nM and 26 nM, respectively.
In assay [1], `CN1CCN(C(=O)CCCOc2ccccc2C(=O)Nc2ccc(C(=O)N3CCCCc4cc(Cl)ccc43)cn2)CC1` [Compound of Ex. 89] displayed an IC50 of 7300 nM.
On to `CC(C)NCCOc1ccccc1C(=O)Nc1ccc(C(=O)N2CCCCc3cc(Cl)ccc32)cn1` [Compound of Ex. 91], for which the inhibition at 10 µM in assay [1] stood at 38%.
Consider `CC(=O)NC1CCN(CCOc2ccccc2C(=O)Nc2ccc(C(=O)N3CCCCc4cc(Cl)ccc43)cn2)CC1` [Compound of Ex. 92], for which, in assay [1], the inhibition at 10 µM is 38%. The IC50 is 380 nM in assay [2] and 60 nM in assay [3].
Consider `O=C1c2ccccc2OCCN1c1ccc(C(=O)N2CCCCc3cc(Cl)ccc32)cn1` [Compound of Ex. 94, 7-chloro-1-[6-(6,7-benzo-1-oxo-4-azepin-5-on-4-yl)nicotinoyl]-2,3,4,5-tetrahydro-1H-benzazepine], for which the IC50 came out at 840 nM in assay [1], 36 nM in assay [2] and 42 nM in assay [3].
On the same counts, the results for `NC(=O)COc1ccccc1C(=O)Nc1ccc(C(=O)N2CCCCc3cc(Cl)ccc32)cn1` [Compound of Ex. 97] are 1800 nM, 160 nM and 5 nM.
For `O=C(O)CC1CCCN(C(=O)c2ccc(NC(=O)c3ccccc3Br)nc2)c2ccc(Cl)cc21` (stereo not drawn) [Compound of Ex. 101] the same measures were 3500 nM, 33 nM and 490 nM.
On the same counts, the results for `Cc1ccccc1C(=O)Nc1ccc(C(=O)N2CCCC(CC(=O)N3CCCCC3)c3cc(Cl)ccc32)cn1` (stereo not drawn) [Compound of Ex. 104] are 510 nM, 24 nM and 38 nM.
In assay [1], `CN1CCN(C(=O)CC2CCCN(C(=O)c3ccc(NC(=O)c4ccccc4Cl)nc3)c3ccc(Cl)cc32)CC1` (stereo not drawn) [Compound of Ex. 107] registered an IC50 of 410 nM.
Turning to `CCNC(=O)CC1CCCN(C(=O)c2ccc(NC(=O)c3ccccc3Cl)nc2)c2ccc(Cl)cc21` (stereo not drawn) [Compound of Ex. 112], the IC50 came to 280 nM in assay [1], 3 nM in assay [2] and 9 nM in assay [3].
On the same counts, the results for `O=C(Nc1ccc(C(=O)N2CCCC(CC(=O)N3CCCC3)c3cc(Cl)ccc32)cn1)c1ccccc1Cl` (stereo not drawn) [Compound of Ex. 114] are 320 nM, 3 nM and 11 nM.
For the compound `CCN(CC)CCN(C)C(=O)CC1CCCN(C(=O)c2ccc(NC(=O)c3ccccc3Br)nc2)c2ccc(Cl)cc21` (stereo not drawn) [Compound of Ex. 120], the IC50 in assay [1] was 350 nM.
The same measure, in the same setting: with `O=C(Nc1ccc(C(=O)N2CCCC(O)(CO)c3cc(Cl)ccc32)cn1)c1ccccc1Cl` (stereo not drawn) [Compound of Ex. 145] the figure was 1200 nM.
In the case of `O=C(Nc1ccc(C(=O)N2CCCC(OCCNC3CCCC3)c3cc(Cl)ccc32)cn1)c1ccccc1Cl` (stereo not drawn) [Compound of Ex. 187], the IC50 was 8 nM in assay [2] and 7.8 nM in assay [3].
For `Cc1ccccc1C(=O)Nc1ccc(C(=O)N2CCCC(OC(=O)CN(C)C)c3cc(Cl)ccc32)cn1` (stereo not drawn) [Compound of Ex. 189], the IC50 in assay [2] came out at 12 nM; in assay [3], 34 nM.
